Common to all, as to conditions: in vivo
One data set has as its system HLA-B*51:01 or B*51:02.
Data set [1] addresses T1, HLA-B*13:01 (Homo sapiens, UniProt P01889, A65T/A93T/A95T/D138N/D201E/D98Y/E176V/E204Q/E69M/E70A/G107R/K202T/L105A/L119I/N104T/N87E/Q94N/R106L/R155S/R169L/R180L/S101N/S121R/S35A/S48T/T118I/V127L/V36M/Y140L/Y91S).
In data set [2] the target is T1, HLA-B*13:01. The source holds these as a separate data set.

As to `NS(=O)(=O)Cc1noc2ccccc12` [zonisamide], in the data set with HLA-B*51:01 or B*51:02, the “Cases N (allele carriers / patients)” value is 4/7 and the OR worked out at 8.3. Moreover, at HLA-B*13:01 [1], the “Cases N (allele carriers / patients)” value is recorded as 5/7 and the OR stood at 19.3. Also, on HLA-B*13:01 [2], the “DHR (%) carrying the allele” value amounted to 100%, the “DHR N (allele carriers / patients)” value is 3/3, the Sensitivity is 100.00% and the Specificity was 88.52%.

Source of the values: patent publication US12729404B2, “Method and kit for testing drug hypersensitivity reactions caused by sulfonamide derivative-based antiepileptic drug and use of the kit” (CHANG GUNG MEMORIAL HOSPITAL, LINKOU, priority 2020, dated 2026).
